Literature values as cited in US20210137911A1, “NOVEL CHRONOTHERAPY BASED ON CIRCADIAN RHYTHMS” (THE TRUSTEES OF THE UNIVERSITY OF PENNSYLVANIA, priority 2014, published 2021).
Like-named read-outs stand apart in the source and are kept apart here.

Details: cited from earlier work
[1] = half-life of therapeutic compound as listed in Table 1

SMILES | ½ Life [1] [h] | ½ Life (in vivo) [h]
Cc1c(OCC(F)(F)F)ccnc1C[S+]([O-])c1nc2ccccc2[nH]1 (centres unmarked) [Lansoprazole] | 1.5 | –
CC(C)OC(=O)CCC/C=C\C[C@@H]1[C@@H](CC[C@@H](O)CCc2ccccc2)[C@H](O)C[C@@H]1O [Latanoprost] | 0.283 | –
Nc1cccc2c1CN(C1CCC(=O)NC1=O)C2=O (centres unmarked) [Lenalidomide] | 3 | –
CCNC(=O)[C@@H]1CCCN1C(=O)[C@H](CCCNC(=N)N)NC(=O)[C@H](CC(C)C)NC(=O)[C@@H](CC(C)C)NC(=O)[C@H](Cc1ccc(O)cc1)NC(=O)[C@H](CO)NC(=O)[C@H](Cc1c[nH]c2ccccc12)NC(=O)[C@H](Cc1c[nH]cn1)NC(=O)[C@@H]1CCC(=O)N1 [Leuprolide] | – | 3
C=CCN1CC[C@]23CCCC[C@H]2[C@H]1Cc1ccc(O)cc13 [Levallorphan] | 1 | –
c1ccc([C@H]2CN3CCSC3=N2)cc1 [Levamisole] | 4.4 | –
C[C@@H]1CC(=O)NN=C1c1ccc(NN=C(C#N)C#N)cc1 [Levosimendan] | 1 | –
CN1C(C(=O)Nc2ccccn2)=C(O)c2sc(Cl)cc2S1(=O)=O [Lornoxicam] | 3 | –
CCCCc1nc(Cl)c(CO)n1Cc1ccc(-c2ccccc2-c2nn[nH]n2)cc1 [Losartan, reference compound] | 1 | –
CC[C@H](C)C(=O)O[C@H]1C[C@@H](C)C=C2C=C[C@H](C)[C@H](CC[C@@H]3C[C@@H](O)CC(=O)O3)[C@H]21 [Lovastatin] | 5.3 | –
CN1CCN(C2=Nc3ccccc3Oc3ccc(Cl)cc32)CC1 [Loxapine] | 4 | –
COC(=O)Nc1nc2ccc(C(=O)c3ccccc3)cc2[nH]1 [Mebendazole] | 2.5 | –
Cc1cccc(Nc2ccccc2C(=O)O)c1C [Mefenamic acid] | 2 | –
COc1ccc2[nH]cc(CCNC(C)=O)c2c1 [Melatonin] | 0.5833 | –
CN[C@@H](C)Cc1ccccc1 [Methamphetamine] | 4 | –
Cn1cc[nH]c1=S [Methimazole] | 5 | –
CN1C(=O)CC(C)(c2ccccc2)C1=O (centres unmarked) [Methsuximide] | 1.4 | –
COC(=O)C(c1ccccc1)C1CCCCN1 (centres unmarked) [Methylphenidate] | – | 3
C[C@H]1C[C@@H]2[C@H]([C@@H](O)C[C@@]3(C)[C@H]2CC[C@]3(O)C(=O)CO)[C@@]2(C)C=CC(=O)C=C12 [Methylprednisolone] | 1 | –
COc1ccc2cc1Oc1cc3c(cc1OC)CC[N+](C)(C)[C@H]3Cc1ccc(cc1)Oc1c(OC)c(OC)cc3c1[C@@H](C2)[N+](C)(C)CC3 [Metocurine Iodide] | – | 3
Cc1ncc2n1-c1ccc(Cl)cc1C(c1ccccc1F)=NC2 [Midazolam] | – | 1.8
OCCN1C[C@H](O)[C@@H](O)[C@H](O)[C@H]1CO [Miglitol] | 2 | –
Cc1[nH]c(=O)c(C#N)cc1-c1ccncc1 [Milrinone] | 2.3 | –
Nc1cc(N2CCCCC2)nc(N)[n+]1[O-] [Minoxidil] | – | 4.2
COc1cc2c(cc1OC)[C@@H](Cc1cc(OC)c(OC)c(OC)c1)[N+](C)(CCCOC(=O)CC/C=C/CCC(=O)OCCC[N+]1(C)CCc3cc(OC)c(OC)cc3[C@H]1Cc1cc(OC)c(OC)c(OC)c1)CC2 (some centres unmarked) [Mivacurium] | 1.7 | –

SMILES | ½ Life [1] [h] | ½ Life (in vivo) [h]
O=C(NCCN1CCOCC1)c1ccc(Cl)cc1 [Moclobemide] | 1 | –
CCOC(=O)[C@H](CCc1ccccc1)N[C@@H](C)C(=O)N1Cc2cc(OC)c(OC)cc2C[C@H]1C(=O)O [Moexipril] | 1 | –
C[C@@H]1C[C@H]2[C@@H]3CCC4=CC(=O)C=C[C@]4(C)[C@@]3(Cl)[C@@H](O)C[C@]2(C)[C@@]1(O)C(=O)CCl [Mometasone] | 5.8 | –
CC(C)(O)c1ccccc1CC[C@@H](SCC1(CC(=O)O)CC1)c1cccc(/C=C/c2ccc3ccc(Cl)cc3n2)c1 [Montelukast] | – | 2.7
CCOC(=O)Nc1ccc2c(c1)N(C(=O)CCN1CCOCC1)c1ccccc1S2 [Moricizine] | 2 | –
CN1CC[C@]23c4c5ccc(O)c4O[C@H]2[C@@H](O)C=C[C@H]3[C@H]1C5 [Morphine] | – | 2
CCCCCCC(C)(C)c1cc(O)c2c(c1)OC(C)(C)C1CCC(=O)CC21 (centres unmarked) [Nabilone] | 2 | –
CC(C)C[C@H](NC(=O)[C@@H](Cc1ccc2ccccc2c1)NC(=O)[C@H](Cc1ccc(O)cc1)NC(=O)[C@H](CO)NC(=O)[C@H](Cc1c[nH]c2ccccc12)NC(=O)[C@H](Cc1c[nH]cn1)NC(=O)[C@@H]1CCC(=O)N1)C(=O)N[C@@H](CCCNC(=N)N)C(=O)N1CCC[C@H]1C(=O)NCC(N)=O [Nafarelin] | – | 3
C=CCN1CC[C@]23c4c5ccc(O)c4O[C@H]2C(=O)CC[C@@]3(O)[C@H]1C5 [Naloxone] | 0.5 | –
CNS(=O)(=O)CCc1ccc2[nH]cc(C3CCN(C)CC3)c2c1 [Naratriptan] | 5 | –
CC(C)[C@H]1CC[C@H](C(=O)N[C@H](Cc2ccccc2)C(=O)O)CC1 [Nateglinide] | 1.5 | –
CCc1nn(CCCN2CCN(c3cccc(Cl)c3)CC2)c(=O)n1CCOc1ccccc1 [Nefazodone] | 2 | –
O=C(O)c1cccnc1Nc1cccc(C(F)(F)F)c1 [Niflumic Acid] | 2.5 | –
CS(=O)(=O)Nc1ccc([N+](=O)[O-])cc1Oc1ccccc1 [Nimesulide] | – | 1.8
COCCOC(=O)C1=C(C)NC(C)=C(C(=O)OC(C)C)C1c1cccc([N+](=O)[O-])c1 (centres unmarked) [Nimodipine] | 1.7 | –
CC(=O)Oc1ccccc1C(=O)Nc1ncc([N+](=O)[O-])s1 [Nitazoxanide] | 3.5 | –
O=C(O)c1cc(/N=N/c2ccc(O)c(C(=O)O)c2)ccc1O [Olsalazine] | 0.9 | –
COc1ccc2[nH]c([S+]([O-])Cc3ncc(C)c(OC)c3C)nc2c1 (centres unmarked) [Omeprazole] | 0.5 | –
Cc1nccn1CC1CCc2c(c3ccccc3n2C)C1=O (centres unmarked) [Ondansetron] | 5.7 | –
CCCCCCCCCCC[C@@H](C[C@@H]1OC(=O)[C@H]1CCCCCC)OC(=O)[C@H](CC(C)C)NC=O [Orlistat] | 1 | –
CCOC(=O)C1=C[C@@H](OC(CC)CC)[C@H](NC(C)=O)[C@@H](N)C1 [Oseltamivir] | 1 | –
C[C@]12COC(=O)C[C@@H]1CC[C@@H]1[C@@H]2CC[C@@]2(C)[C@H]1CC[C@]2(C)O [Oxandrolone] | 0.55 | –
C=CCOc1ccccc1OCC(O)CNC(C)C (centres unmarked) [Oxprenolol] | 1 | –
Cn1c(=O)c2[nH]cnc2n(C)c1=O [Oxtriphylline] | 3 | –
COc1ccc2c3c1O[C@H]1C(=O)CC[C@@]4(O)[C@@H](C2)N(C)CC[C@]314 [Oxycodone] | 4.5 | –

SMILES | ½ Life [1] [h] | ½ Life (in vivo) [h]
CN1CC[C@]23c4c5ccc(O)c4O[C@H]2C(=O)CC[C@@]3(O)[C@H]1C5 [Oxymorphone] | 1.3 | –
CC[C@H](C)[C@@H]1NC(=O)[C@H](Cc2ccc(O)cc2)NC(=O)[C@@H](N)CSSC[C@@H](C(=O)N2CCC[C@H]2C(=O)N[C@@H](CC(C)C)C(=O)NCC(N)=O)NC(=O)[C@H](CC(N)=O)NC(=O)[C@H](CCC(N)=O)NC1=O [Oxytocin] | – | 0.0166
CC(=O)O[C@H]1C[C@@H]2CC[C@@H]3[C@H](CC[C@@]4(C)[C@H]3C[C@H]([N+]3(C)CCCCC3)[C@@H]4OC(C)=O)[C@@]2(C)C[C@@H]1[N+]1(C)CCCCC1 [Pancuronium] | – | 1.5
COc1ccnc(C[S+]([O-])c2nc3ccc(OC(F)F)cc3[nH]2)c1OC (centres unmarked) [Pantoprazole] | 1 | –
COc1ccc(Cc2nccc3cc(OC)c(OC)cc23)cc1OC [Papaverine] | – | 0.5
C[C@H](/C=C/[C@H](C)C(C)(C)O)[C@H]1CC[C@H]2/C(=C/C=C3C[C@@H](O)C[C@H](O)C3)CCC[C@]12C [Paricalcitol] | 4 | –
Nc1nc2[nH]cc(CCc3ccc(C(=O)N[C@@H](CCC(=O)O)C(=O)O)cc3)c2c(=O)[nH]1 [Pemetrexed] | 3.5 | –
CSCC[C@H](NC(=O)[C@H](Cc1c[nH]c2ccccc12)NC(=O)CCNC(=O)OC(C)(C)C)C(=O)N[C@@H](CC(=O)O)C(=O)N[C@@H](Cc1ccccc1)C(N)=O [Pentagastrin] | – | 0.166
CCCC(C)C1(CC)C(=O)NC(=O)NC1=O (centres unmarked) [Pentobarbital] | – | 5
OC[C@H]1O[C@@H](n2cnc3c2NC=NC[C@H]3O)C[C@@H]1O [Pentostatin] | 5.7 | –
C1CCC(C(CC2CCCCN2)C2CCCCC2)CC1 (centres unmarked) [Perhexiline] | 2 | –
CCC[C@H](N[C@@H](C)C(=O)N1[C@H](C(=O)O)C[C@@H]2CCCC[C@@H]21)C(=O)OCC [Perindopril] | 1.2 | –
CCOC(=O)C1(c2ccccc2)CCN(C)CC1 [Pethidine] | – | 1
NNCCc1ccccc1 [Phenelzine] | 1.2 | –
O=C1c2ccccc2C(=O)C1c1ccccc1 [Phenindione] | 5 | –
CNC[C@H](O)c1cccc(O)c1 [Phenylephrine] | 2.1 | –
CC(N)C(O)c1ccccc1 (centres unmarked) [Phenylpropanolamine] | – | 2.1
CC[C@@H]1C(=O)OC[C@@H]1Cc1cncn1C [Pilocarpine] | 0.76 | –
CC(C)NCC(O)COc1cccc2[nH]ccc12 (centres unmarked) [Pindolol] | 3 | –
CCc1ccc(CCOc2ccc(CC3SC(=O)NC3=O)cc2)nc1 (centres unmarked) [Pioglitazone] | 3 | –
Cc1ccc(=O)n(-c2ccccc2)c1 [Pirfenidone] | 2 | –
c1cc(CN2CCCNCCNCCCNCC2)ccc1CN1CCCNCCNCCCNCC1 [Plerixafor] | 4.4 | –
COc1cc([C@@H]2c3cc4c(cc3[C@H](O)[C@H]3COC(=O)[C@H]23)OCO4)cc(OC)c1OC [Podofilox] | 1 | –
C[n+]1ccccc1/C=N/O [Pralidoxime] | 1.233 | –
